In US8216551B2, “In vivo system to monitor tissue responses in birds” (The Board of Trustees of the University of Arkansas, priority 2008, dated 2012):

B1: IFN-γ: recombinant chicken IFN-γ (protein, UniProt P49708 20-164, looked up)
Interferon gamma: HTASSLNLVQLQDDIDKLKADFNSSHSDVADGGPIIVEKLKNWTERNEKRIILSQIVSMYLEMLENTDKSKPHIKHISEELYTLKNNLPDGVKKVKDIMDLAKLPMNDLRIQRKAANELFSILQKLVDPPSFKRKRSQSQRRCNC

Assays:
feather pulp [1] = test: Local tissue response to LPS or PHA injected into feathers and wing webs; type: in vivo, chicken; conditions: for composition of the infiltrate / MHC class II expression: 6 hours post-injection; for MHC class II expression: immunohistochemistry; for leukocyte infiltration: in vivo
feather pulp [2] = test: Local tissue response to injection of IFN-γ into growing feathers; type: in vivo, chicken; conditions: for mean score of extent of mononuclear infiltration: score 1=no infiltration

Molecule	composition of the infiltrate (feather pulp [1])	MHC class II expression (feather pulp [1])	leukocyte infiltration (feather pulp [1])	mean score of extent of mononuclear infiltration (feather pulp [2]; 6 h post-injection, 5=extensive infiltration throughout the entire pulp)	mean score of extent of mononuclear infiltration (feather pulp [2]; 1 day post-injection, 5=extensive)	mean score of extent of mononuclear infiltration (feather pulp [2]; 2 days post-injection, 5=extensive)	mean score of extent of mononuclear infiltration (feather pulp [2]; 3 days post-injection, 5=extensive)	histological analysis, cell infiltration into the feather pulp (feather pulp [2]; by 6 h, preliminary)
lipopolysaccharide [LPS]	primarily of heterophils	noticeable increase	extensive leukocyte infiltration					
phytohaemagglutinin [PHA]	heterophils and mononuclear cells	substantially increased	extensive leukocyte infiltration					
B1				1.6±0.1	4.0±0.5	3.2±0.6	3.0±0.9	mononuclear cell infiltration into the feather pulp, but no granulocytes
